According to US9932303B2, “N-hydroxymethanesulfonamide nitroxyl donors” (Cardioxyl Pharmaceuticals, Inc., priority 2014, dated 2018):

Columns and labels:
[1] = In vitro stability in dog plasma; type: in vitro ADME; details: male, pH 7.4, 37° C., read-out: T1/2 (minutes) Dog
Experimental: (§1) Certain compounds from Table 1 were tested for their stability in plasma. The assay system comprised (i) PBS, or plasma from rat, dog or human (at least 3 donors, male, pooled) at pH 7.4, and (ii) for tests conducted in plasma, an anticoagulant (sodium heparin or sodium citrate). Each test compound (5 μM) was incubated in PBS or plasma at 37° C. on a THERMOMIXER® with shaking Three samples (n=3) were taken at each of seven sampling time points: 0, 10, 30, 60, 90, 180 and 360 minutes. The samples were immediately combined with 3 volumes (i.e., 3 times the volume of PBS or plasma) of acetonitrile containing 1% formic acid and an internal standard to terminate the reaction. AB SCIEX API 3000 LC-MS/MS analysis of the test compounds was performed without a standard curve. Half-lives (T1/2) of the test compounds were determined from graphs of the percent remaining values using the peak area response ratio.

[2] = Solid-state stability (appearance, HPLC purity) on storage; type: physicochemical; details: 40° C., 70% RH
Experimental: Solid, powdered samples of compound 2 (1-(4-chlorophenyl)-N-hydroxymethanesulfonamide) were sealed in double polyethylene bags and stored at 40° C., 70% relative humidity (RH) for up to 3 months. After 2 weeks, 1 month, 2 months, and 3 months of storage, the samples were analyzed for visual appearance and/or purity, as determined by high performance liquid chromatography (HPLC). The HPLC measurement conditions were as follows: • Column: PrimeSep AB, 150×4.6 mm, 5 μm • Injection Volume: 10 μL • Detection Wavelength: 220 nm • Mobile Phase A: 0.3% Trifluoroacetic acid (TFA) in deionized water (DI-H2O) • Mobile Phase B: 0.2% TFA in acetonitrile • Diluent: Acetonitrile • Gradient:
• Flow Rate: 1.0 mL/min • Column Temperature: 30° C.

[3] = Nitroxyl production via N2O headspace analysis (GC); details: PBS, 37° C.
Text: Nitrous oxide (N2O) is produced via the dimerization and dehydration of HNO, and is the most common marker for nitroxyl production (Fukuto et al., Chem. Res. Toxicol. 18:790-801 (2005)). […] Using either nitrous oxide gas or Angeli's salt (AS) as a standard, the relative amounts of N2O released from N-hydroxymethanesulfonamide nitroxyl donating compounds was examined via gas chromatography (GC) headspace analysis.
A procedure for determining the relative amounts of N2O released from N-hydroxymethanesulfonamide nitroxyl donating compounds is as follows. GC was performed on an Agilent gas chromatograph equipped with a split injector (10:1 splitting), microelectron capture detector, and a HP-MOLSIV 30 m×0.32 mm×25 μm molecular sieve capillary column. Helium was used as the carrier (4 mL/min) gas and nitrogen was used as the make-up (20 mL/min) gas. […]
All determinations used a batch of nominal 20 mL headspace vials with volumes pre-measured for sample uniformity (actual vial volume varied by ≤2.0% relative standard deviation (n=6)). The average vial volume for the batch was determined from six randomly-selected vials by calculating the weight difference between the capped and sealed empty (i.e., air-filled) vial and the capped and sealed deionized water-filled vial using the known density of deionized water, then averaging. […]

[4] = In vitro stability in rat plasma; type: in vitro ADME; details: male, pH 7.4, 37° C., read-out: T1/2 (minutes) Rat
Experimental: as §1

[5] = In vitro stability in human plasma; type: in vitro ADME; details: male, pH 7.4, 37° C., read-out: T1/2 (minutes) Human
Experimental: as §1

half-life at 5 μM [1]: 62 min
Appearance ([2]; 0 Weeks): White
HPLC Purity ([2]; 0 Weeks): 98.912%
HPLC peak at RRT 0.88 ([2]; 0 Weeks): 0.368%
HPLC peak at RRT 1.23 ([2]; 0 Weeks): 0.087%
HPLC peak at RRT 1.35 ([2]; 0 Weeks): 0.633%
Appearance ([2]; 1 Month): White
HPLC Purity ([2]; 1 Month): 95.579%
HPLC peak at RRT 0.88 ([2]; 1 Month): 0.966%
HPLC peak at RRT 1.54 ([2]; 1 Month): 1.959%
HPLC peak at RRT 1.76 ([2]; 1 Month): 0.502%
Appearance ([2]; 2 Months): Off white
HPLC Purity ([2]; 2 Months): 82.665%
HPLC peak at RRT 0.88 ([2]; 2 Months): 3.600%
HPLC peak at RRT 1.53 ([2]; 2 Months): 6.432%
HPLC peak at RRT 1.77 ([2]; 2 Months): 3.234%
Appearance ([2]; 2 Weeks): White
Appearance ([2]; 3 Months): Off white
HPLC Purity ([2]; 3 Months): 76.661%
HPLC peak at RRT 0.88 ([2]; 3 Months): 4.108%
HPLC peak at RRT 1.50 ([2]; 3 Months): 10.123%
HPLC peak at RRT 1.77 ([2]; 3 Months): 3.165%
half-life at 5 μM [4]: 114 min
melting point: 144 °C
half-life at 5 μM [5]: 102 min
SMILES: O=S(=O)(Cc1ccc(Cl)cc1)NO [Compound 2, 1-(4-Chlorophenyl)-N-hydroxymethanesulfonamide]
Relative N2O Yield (90 minute incubation) [3]: 24%
